Values quoted from earlier work, collected in patent US6391342B1, “Pharmaceutical formulation comprising a 2- [(2-pyridinyl) methyl] sulfinyl benzimidazole having anti-ulcer activity and a process for the preparation of such formulation” (A/S GEA Farmaceutisk Fabrik, priority 1998, dated 2002).
Read-outs that look alike come from different tables or passages of the source.

With `COc1ccc2[nH]c([S+]([O-])Cc3ncc(C)c(OC)c3C)nc2c1` (stereo not drawn) [omeprazole, 5-methoxy-2-[[(4-methoxy-3,5-dimethyl-2-pyridinyl)methyl]sulfinyl]-1H-benzimidazole] as the compound, how does the stability to acids (acids) read?
The stability to acids was “sensible to acids”.

And the solubility (in alkaline solutions)?
The solubility was “very soluble”.

What about the solubility (in water) of the same compound?
The solubility was “only slightly soluble”.
